Experiments:
[1] = Solubility (dissolution) of the new crystalline polymorph used as substrate; format: physicochemical; settings: polymorph from THF, 2-methyl-THF or DCM with triethylamine, heat/cool crystallization
Experimental: Crystalline solids were identified as a new polymorph of 3-palmitoyl-amido-1,2-propanediol using THF, 2-methyl-THF or DCM with triethylamine during a heat/cool induced crystallization. The heat/cool crystallization included solubilizing 3-palmitoyl-amido-1,2-propanediol in a solution of THF, and heating and maintaining the composition at 50° C. overnight. For 2-methyl-THF or DCM, the solution with palmitoyl-amido-1,2-propanediol was heated to 60° C. overnight to produce a solution. After cooling the samples back to 30° C., crystalline solids formed as slurries in the solutions of THF, 2-methyl-THF and DCM.

[2] = Screening of the solubility in various solvents and solvent mixtures; format: physicochemical
Experimental: A screening of the solubility of 3-palmitoyl-amido-1,2-propanediol was conducted with various solvents and solvent mixtures. Tetrahydrofuran (THF), 2-methyl-THF, dichloromethane (DCM), N-methyl-2-pyrrolidone (NMP), dimethylacetamide (DMAc), toluene, 2-methylbutan-2-ol (tAmOH), isopropylacetate (iPrOAc), dimethylsulfoxide (DMSO) and dimethylformamide (DMF) were identified as solvents for use in the studies. The effect of triethylamine on the solubility was also evaluated.

[3] = system: cancer cell lines and human tumors; settings: multitude of different cancer cell lines and human tumors; cited from earlier work
[4] = system: myelofibrosis; settings: cited from earlier work
[5] = system: template region of the RNA component of telomerase; settings: cited from earlier work
[6] = system: telomerase; settings: cited from earlier work

For `CCCCCCCCCCCCCCCC(=O)NCC(O)CO` (stereo not shown) [3-palmitoyl-amido-1,2-propanediol], the “solubility of the polymorph” value [1] was “faster solubility”, the “effect of triethylamine on the solubility” value ([2]; in the screened solvents (THF, 2-methyl-THF, DCM, NMP, DMAc, toluene, tAmOH, iPrOAc, DMSO, DMF)) was “small effect” and the solubility ([2]; solvent dimethylacetamide (DMAc)) was “moderate solubility”. The solubility ([2]; solvent dimethylformamide (DMF)) was “moderate solubility” and the solubility ([2]; solvent dimethylsulfoxide (DMSO)) was “moderate solubility”.

For Imetelstat, the cell proliferation [3] is listed as “effective against cell proliferation”, the bone marrow fibrosis ([4]; patients with myelofibrosis in complete remission) is listed as “reversal of bone marrow fibrosis” and the clinical remission ([4]; patients with myelofibrosis) is listed as “complete clinical remissions in certain patients”. The binding affinity [5] was “high affinity” and the telomerase activity [6] was “inhibits telomerase activity”.

Reference: patent US11987540B2, “Crystalline solids of 3-palmitoyl-amido-1,2-propanediol and 3-palmitoyl-amido-2-hydroxy-1-dimethoxytriphenylmethylether-propane and methods of making and using the same” (Geron Corporation, priority 2019, dated 2024)
